US10364247B2, “Preparation and use of novel protein kinase inhibitors” (Ruijin Hospital Affiliated to Shanghai Jiao Tong University …, priority 2015, dated 2019)

What was measured:
Assay in all cases: KINOMEscan competition binding
LTK = target: T1, LTK (Homo sapiens, UniProt P29376); details: read-out: Percent Control
T1 construct: purchased KINOMEscan (screening platform)
Protocol: (§1) KINOMEscan™ is based on a competition binding assay that quantitatively measures the ability of a compound to compete with an immobilized, active-site directed ligand (Fabian et al. (2005) Nat. Biotechnol. 23, 329; Karaman et al. (2008) Nat. Biotechnol. 26, 127). The compound was screened at 10 μM, and results for primary screen binding interactions are reported as ‘% Ctrl’, where lower numbers indicate stronger hits. The results for kinases targets with a % Ctrl less than 30 can be seen in Table 2.

PDGFRB = PDGFRB (Homo sapiens, UniProt P09619); details: read-out: Percent Control
Protocol: as §1

KIT(D816H) = KIT(D816H) (Homo sapiens, UniProt P10721, D816H); details: read-out: Percent Control
Protocol: as §1

p38-alpha = target: T2, p38-alpha (Homo sapiens, UniProt Q16539); details: p38-alpha (Entrez MAPK14), read-out: Percent Control
T2 construct: purchased KINOMEscan (panel service)
Protocol: as §1

EPHB6 = EPHB6 (Homo sapiens, UniProt O15197); details: read-out: Percent Control
Sequence of EPHB6 (O15197 32-1021): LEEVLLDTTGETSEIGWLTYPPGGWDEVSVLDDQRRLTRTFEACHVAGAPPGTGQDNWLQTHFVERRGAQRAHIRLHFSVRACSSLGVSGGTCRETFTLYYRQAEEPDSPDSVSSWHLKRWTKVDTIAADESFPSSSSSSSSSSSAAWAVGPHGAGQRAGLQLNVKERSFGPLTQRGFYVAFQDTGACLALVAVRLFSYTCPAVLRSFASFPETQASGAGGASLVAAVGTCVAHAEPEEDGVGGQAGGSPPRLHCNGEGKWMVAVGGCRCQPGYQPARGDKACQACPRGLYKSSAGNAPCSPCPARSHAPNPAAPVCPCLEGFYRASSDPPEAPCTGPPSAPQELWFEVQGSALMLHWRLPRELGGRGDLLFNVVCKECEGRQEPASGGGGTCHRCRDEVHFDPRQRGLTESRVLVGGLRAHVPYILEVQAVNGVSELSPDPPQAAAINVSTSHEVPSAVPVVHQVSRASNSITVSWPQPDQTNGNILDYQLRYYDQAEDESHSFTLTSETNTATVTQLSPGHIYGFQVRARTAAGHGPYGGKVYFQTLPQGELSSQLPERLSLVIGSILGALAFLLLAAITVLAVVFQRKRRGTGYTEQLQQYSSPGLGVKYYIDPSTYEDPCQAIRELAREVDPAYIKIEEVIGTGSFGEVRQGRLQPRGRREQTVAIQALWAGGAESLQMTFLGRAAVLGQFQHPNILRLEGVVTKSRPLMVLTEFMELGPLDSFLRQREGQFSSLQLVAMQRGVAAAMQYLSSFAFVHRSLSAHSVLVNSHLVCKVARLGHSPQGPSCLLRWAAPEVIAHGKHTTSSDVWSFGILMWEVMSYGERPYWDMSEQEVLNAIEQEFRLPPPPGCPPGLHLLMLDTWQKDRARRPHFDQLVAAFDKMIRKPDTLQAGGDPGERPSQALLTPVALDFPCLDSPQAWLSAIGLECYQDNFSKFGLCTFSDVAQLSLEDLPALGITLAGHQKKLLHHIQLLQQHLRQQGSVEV
Protocol: as §1

FRK = FRK (Homo sapiens, UniProt P42685); details: read-out: Percent Control
Protocol: as §1

CSF1R = target: T3, CSF1R (Homo sapiens, UniProt P07333); details: read-out: Percent Control
T3 construct: purchased KINOMEscan (panel service)
Protocol: as §1

EPHA2 = EPHA2 (Homo sapiens, UniProt P29317); details: read-out: Percent Control
Protocol: as §1

PFCDPK1(P. falciparum) = PFCDPK1(P. falciparum) (Plasmodium falciparum, UniProt P62344); details: PFCDPK1(P. falciparum) (Entrez CDPK1), read-out: Percent Control
Sequence of PFCDPK1(P. falciparum) (P62344 whole entry): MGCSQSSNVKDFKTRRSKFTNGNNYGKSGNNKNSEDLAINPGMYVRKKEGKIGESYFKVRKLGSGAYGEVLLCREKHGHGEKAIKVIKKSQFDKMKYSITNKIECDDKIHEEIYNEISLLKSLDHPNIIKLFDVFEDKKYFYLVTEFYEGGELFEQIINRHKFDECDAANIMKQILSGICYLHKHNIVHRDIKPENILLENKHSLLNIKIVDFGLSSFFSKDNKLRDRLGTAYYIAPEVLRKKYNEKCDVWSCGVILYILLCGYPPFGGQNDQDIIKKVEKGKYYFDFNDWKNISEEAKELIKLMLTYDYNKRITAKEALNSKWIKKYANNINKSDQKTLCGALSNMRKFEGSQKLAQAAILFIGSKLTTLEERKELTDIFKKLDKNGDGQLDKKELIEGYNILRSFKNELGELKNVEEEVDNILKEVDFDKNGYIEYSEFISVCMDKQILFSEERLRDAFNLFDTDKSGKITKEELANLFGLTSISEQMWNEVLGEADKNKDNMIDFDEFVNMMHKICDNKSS
Protocol: as §1

[1] = target: ABL1(F317L)-phosphorylated (Homo sapiens, UniProt P00519, F317L); details: read-out: Percent Control
Protocol: as §1

MAP4K4 = MAP4K4 (Homo sapiens, UniProt O95819); details: read-out: Percent Control
Protocol: as §1

TNK1 = target: T4, TNK1 (Homo sapiens, UniProt Q13470); details: read-out: Percent Control
T4 construct: purchased KINOMEscan (screening service)
Protocol: as §1

MAP4K2 = MAP4K2 (Homo sapiens, UniProt Q12851); details: read-out: Percent Control
Protocol: as §1

FLT3(ITD) = details: 10 μM
Protocol: as §1

SIK = SIK (Homo sapiens, UniProt P57059); details: SIK (Entrez SIK1), read-out: Percent Control
Protocol: as §1

p38-beta = p38-beta (Homo sapiens, UniProt Q15759); details: p38-beta (Entrez MAPK11), read-out: Percent Control
Protocol: as §1

[2] = target: T5, JAK3(JH1domain-catalytic) (Homo sapiens, UniProt P52333); details: read-out: Percent Control
T5 construct: JAK3(JH1domain-catalytic)
Protocol: as §1

VEGFR2 = VEGFR2 (Homo sapiens, UniProt P35968); details: VEGFR2 (Entrez KDR), read-out: Percent Control
Protocol: as §1

BLK = BLK (Homo sapiens, UniProt P51451); details: read-out: Percent Control
Sequence of BLK (P51451 whole entry): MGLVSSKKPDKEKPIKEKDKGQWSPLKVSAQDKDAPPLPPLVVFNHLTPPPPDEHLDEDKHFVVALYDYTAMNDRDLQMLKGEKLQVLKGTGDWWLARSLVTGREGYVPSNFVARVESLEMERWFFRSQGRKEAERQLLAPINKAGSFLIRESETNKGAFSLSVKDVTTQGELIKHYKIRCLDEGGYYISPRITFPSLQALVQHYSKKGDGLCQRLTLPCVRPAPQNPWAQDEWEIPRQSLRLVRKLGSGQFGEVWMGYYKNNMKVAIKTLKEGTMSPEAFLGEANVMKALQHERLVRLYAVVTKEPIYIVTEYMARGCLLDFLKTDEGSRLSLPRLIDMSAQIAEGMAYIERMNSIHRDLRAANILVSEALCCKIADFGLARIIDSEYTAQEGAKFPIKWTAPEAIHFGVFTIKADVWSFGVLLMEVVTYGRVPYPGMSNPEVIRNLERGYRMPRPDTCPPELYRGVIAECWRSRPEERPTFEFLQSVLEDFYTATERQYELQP
Protocol: as §1

ERBB2 = ERBB2 (Homo sapiens, UniProt P04626); details: read-out: Percent Control
Protocol: as §1

RET(M918T) = RET(M918T) (Homo sapiens, UniProt P07949, M918T); details: read-out: Percent Control
Protocol: as §1

MAP3K3 = MAP3K3 (Homo sapiens, UniProt Q99759); details: read-out: Percent Control
Sequence of MAP3K3 (Q99759 whole entry): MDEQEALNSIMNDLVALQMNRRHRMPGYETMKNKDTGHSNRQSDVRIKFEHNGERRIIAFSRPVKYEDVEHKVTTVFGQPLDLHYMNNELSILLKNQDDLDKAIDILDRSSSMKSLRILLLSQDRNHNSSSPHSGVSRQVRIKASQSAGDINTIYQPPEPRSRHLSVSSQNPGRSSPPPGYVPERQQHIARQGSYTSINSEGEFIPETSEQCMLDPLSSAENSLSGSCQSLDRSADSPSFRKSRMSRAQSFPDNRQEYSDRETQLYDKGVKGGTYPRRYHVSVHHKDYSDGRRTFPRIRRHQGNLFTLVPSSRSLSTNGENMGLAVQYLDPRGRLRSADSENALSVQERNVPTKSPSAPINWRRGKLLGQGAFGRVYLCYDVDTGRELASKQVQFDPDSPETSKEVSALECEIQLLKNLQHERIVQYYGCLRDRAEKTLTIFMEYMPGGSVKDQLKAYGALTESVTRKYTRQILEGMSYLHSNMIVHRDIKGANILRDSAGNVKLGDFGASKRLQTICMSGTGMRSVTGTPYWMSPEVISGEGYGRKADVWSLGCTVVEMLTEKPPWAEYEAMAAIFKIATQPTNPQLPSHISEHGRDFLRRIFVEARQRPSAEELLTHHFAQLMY
Protocol: as §1

[3] = target: ABL1(T315I)-phosphorylated (Homo sapiens, UniProt P00519, T315I); details: read-out: Percent Control
Protocol: as §1

FER = FER (Homo sapiens, UniProt P16591); details: read-out: Percent Control
Protocol: as §1

TRKB = target: T6, TRKB (Homo sapiens, UniProt Q16620); details: TRKB (Entrez NTRK2), read-out: Percent Control
T6 construct: purchased KINOMEscan (screening service)
T6 sequence (Q16620 32-822): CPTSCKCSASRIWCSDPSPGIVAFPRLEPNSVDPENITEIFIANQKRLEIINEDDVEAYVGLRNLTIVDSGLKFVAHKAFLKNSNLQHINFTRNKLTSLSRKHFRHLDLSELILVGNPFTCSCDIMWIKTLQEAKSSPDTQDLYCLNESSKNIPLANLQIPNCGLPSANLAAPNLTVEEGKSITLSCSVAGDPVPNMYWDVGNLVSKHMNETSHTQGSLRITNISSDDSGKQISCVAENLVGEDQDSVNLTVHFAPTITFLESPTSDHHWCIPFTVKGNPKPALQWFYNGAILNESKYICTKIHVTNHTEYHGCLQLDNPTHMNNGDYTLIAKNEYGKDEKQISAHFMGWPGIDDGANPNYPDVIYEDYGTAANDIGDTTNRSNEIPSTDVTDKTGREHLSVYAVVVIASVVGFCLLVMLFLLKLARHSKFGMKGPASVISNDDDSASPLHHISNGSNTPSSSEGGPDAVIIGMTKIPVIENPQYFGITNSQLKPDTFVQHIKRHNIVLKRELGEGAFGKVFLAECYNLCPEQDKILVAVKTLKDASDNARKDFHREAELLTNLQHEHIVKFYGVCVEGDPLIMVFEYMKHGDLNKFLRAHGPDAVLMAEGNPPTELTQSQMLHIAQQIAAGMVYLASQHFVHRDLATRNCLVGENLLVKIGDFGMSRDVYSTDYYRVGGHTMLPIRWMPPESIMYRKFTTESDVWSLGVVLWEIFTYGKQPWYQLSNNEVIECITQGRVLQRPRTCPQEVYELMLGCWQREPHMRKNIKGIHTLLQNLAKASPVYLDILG
Protocol: as §1

FYN = target: T7, FYN (Homo sapiens, UniProt P06241); details: read-out: Percent Control
T7 construct: purchased KINOMEscan (panel service)
Protocol: as §1

LOK = LOK (Homo sapiens, UniProt O94804); details: LOK (Entrez STK10), read-out: Percent Control
Protocol: as §1

WNK3 = target: T8, WNK3 (Homo sapiens, UniProt Q9BYP7); details: read-out: Percent Control
T8 construct: purchased KINOMEscan (screening service)
Protocol: as §1

EGFR(L861Q) = EGFR(L861Q) (Homo sapiens, UniProt P00533, L861Q); details: read-out: Percent Control
Protocol: as §1

EPHA1 = EPHA1 (Homo sapiens, UniProt P21709); details: read-out: Percent Control
Protocol: as §1

MEK5 = MEK5 (Homo sapiens, UniProt Q13163); details: MEK5 (Entrez MAP2K5), read-out: Percent Control
Protocol: as §1

MUSK = MUSK (Homo sapiens, UniProt O15146); details: read-out: Percent Control
Protocol: as §1

TIE2 = TIE2 (Homo sapiens, UniProt Q02763); details: TIE2 (Entrez TEK)
Protocol: as §1

BTK = target: T9, BTK (Homo sapiens, UniProt Q06187); details: read-out: Percent Control
T9 construct: purchased KINOMEscan (panel service)
T9 sequence (Q06187 whole entry): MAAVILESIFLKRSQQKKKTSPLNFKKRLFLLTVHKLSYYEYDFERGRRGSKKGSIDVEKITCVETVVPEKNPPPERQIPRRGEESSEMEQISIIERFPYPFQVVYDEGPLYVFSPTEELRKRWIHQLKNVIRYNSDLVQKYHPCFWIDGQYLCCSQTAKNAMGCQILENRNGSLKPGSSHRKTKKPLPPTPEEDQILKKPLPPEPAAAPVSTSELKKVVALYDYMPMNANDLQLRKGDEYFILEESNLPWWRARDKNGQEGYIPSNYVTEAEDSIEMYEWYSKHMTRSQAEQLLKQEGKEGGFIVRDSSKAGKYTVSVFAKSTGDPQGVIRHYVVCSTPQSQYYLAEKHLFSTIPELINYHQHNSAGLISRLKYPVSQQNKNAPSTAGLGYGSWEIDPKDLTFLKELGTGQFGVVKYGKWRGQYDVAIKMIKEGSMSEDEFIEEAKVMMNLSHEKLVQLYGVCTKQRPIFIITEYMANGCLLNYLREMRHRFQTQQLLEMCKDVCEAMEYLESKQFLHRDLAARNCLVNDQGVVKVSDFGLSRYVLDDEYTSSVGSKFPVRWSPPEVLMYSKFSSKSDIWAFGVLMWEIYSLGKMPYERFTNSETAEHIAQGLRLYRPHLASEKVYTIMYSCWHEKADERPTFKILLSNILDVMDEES
Protocol: as §1

[4] = target: EGFR(L747-S752del, P753S) (Homo sapiens, UniProt P00533, DEL747-752/P753S); details: read-out: Percent Control
Protocol: as §1

FLT3(D835Y) = target: T10, FLT3(D835Y) (Homo sapiens, UniProt P36888, D835Y); details: read-out: Percent Control
T10 construct: purchased KINOMEscan (screening service)
Protocol: as §1

T1 sequence (P29376 17-864): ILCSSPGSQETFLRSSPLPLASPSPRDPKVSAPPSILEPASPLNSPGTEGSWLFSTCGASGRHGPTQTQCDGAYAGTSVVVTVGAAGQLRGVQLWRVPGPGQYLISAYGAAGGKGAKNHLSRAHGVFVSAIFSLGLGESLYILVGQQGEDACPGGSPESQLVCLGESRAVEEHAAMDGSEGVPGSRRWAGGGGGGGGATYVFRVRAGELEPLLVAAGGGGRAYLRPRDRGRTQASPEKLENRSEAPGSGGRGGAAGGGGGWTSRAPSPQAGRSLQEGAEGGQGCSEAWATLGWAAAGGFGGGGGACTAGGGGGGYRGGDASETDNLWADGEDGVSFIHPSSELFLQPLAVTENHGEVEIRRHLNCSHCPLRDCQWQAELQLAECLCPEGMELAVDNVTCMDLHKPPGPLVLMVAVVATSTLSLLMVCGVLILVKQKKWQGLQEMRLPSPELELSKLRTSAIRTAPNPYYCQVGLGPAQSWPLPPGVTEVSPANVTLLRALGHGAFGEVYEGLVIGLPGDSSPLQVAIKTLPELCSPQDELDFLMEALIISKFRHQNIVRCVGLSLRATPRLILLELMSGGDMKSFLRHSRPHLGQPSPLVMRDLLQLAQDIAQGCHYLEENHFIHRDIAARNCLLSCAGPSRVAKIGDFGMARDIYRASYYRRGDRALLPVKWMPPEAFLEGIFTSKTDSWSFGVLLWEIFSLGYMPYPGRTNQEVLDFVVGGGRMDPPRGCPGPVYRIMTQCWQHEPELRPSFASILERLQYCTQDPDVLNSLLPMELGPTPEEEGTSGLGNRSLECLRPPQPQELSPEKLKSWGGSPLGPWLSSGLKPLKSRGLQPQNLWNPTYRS

## Cc1ccc(Nc2ncc3c(n2)N(C)CN(c2cc(NC(=O)c4cccc(C(F)(F)F)c4)ccc2C)C3)cn1 [IA-9, N-(4-methyl-3-(1-methyl-7-((6-methylpyridin-3-yl)amino)-1,4-dihydropyrimido[4,5-d]pyrimidin-3(2H)-yl)phenyl)-3-(trifluoromethyl)benzamide]
LTK
  remaining binding at 10 µM: 22%
PDGFRB
  remaining binding at 10 µM: 0%
KIT(D816H)
  remaining binding at 10 µM: 5.4%
p38-alpha
  remaining binding at 10 µM: 0.1%
EPHB6
  remaining binding at 10 µM: 0.3%
FRK
  remaining binding at 10 µM: 0%
CSF1R
  remaining binding at 10 µM: 0.15%
EPHA2
  remaining binding at 10 µM: 0.2%
PFCDPK1(P. falciparum)
  remaining binding at 10 µM: 0.35%
[1]
  remaining binding at 10 µM: 3.2%
MAP4K4
  remaining binding at 10 µM: 0.6%
TNK1
  remaining binding at 10 µM: 12%
MAP4K2
  remaining binding at 10 µM: 4.6%
FLT3(ITD)
  Percent Control: 0.55 % Ctrl
SIK
  remaining binding at 10 µM: 0.35%
p38-beta
  remaining binding at 10 µM: 0%
[2]
  remaining binding at 10 µM: 5%
VEGFR2
  remaining binding at 10 µM: 2%
BLK
  remaining binding at 10 µM: 0.3%
ERBB2
  remaining binding at 10 µM: 0%
RET(M918T)
  remaining binding at 10 µM: 0%
MAP3K3
  remaining binding at 10 µM: 1.3%
[3]
  remaining binding at 10 µM: 4.1%
FER
  remaining binding at 10 µM: 3.6%
TRKB
  remaining binding at 10 µM: 10%
FYN
  remaining binding at 10 µM: 0.05%
LOK
  remaining binding at 10 µM: 0%
WNK3
  remaining binding at 10 µM: 18%
EGFR(L861Q)
  remaining binding at 10 µM: 0%
EPHA1
  remaining binding at 10 µM: 0.35%
MEK5
  remaining binding at 10 µM: 0.3%
MUSK
  remaining binding at 10 µM: 6.8%
TIE2
  percent of control binding at 10 µM: 0.45%
BTK
  remaining binding at 10 µM: 0.15%
[4]
  remaining binding at 10 µM: 0%
FLT3(D835Y)
  remaining binding at 10 µM: 9%
